Tests used:
[1] = test system: adiponectin concentration in blood; experiment: Acceleration of increase and/or inhibition of decrease of adiponectin concentration in blood (high fat feed animal test, ELISA); format: in vivo
Experimental: Using the sphingomyelin obtained in Example 7, an action of acceleration of increase and/or inhibition of decrease of an adiponectin concentration in blood was verified. An animal test was carried out using 8 animals per group by a group in which a high fat feed blended with sphingomyelin was fed (sphingomyelin diet group) and a group in which a high fat feed not blended with sphingomyelin was fed (high fat diet group). The high fat diet was prepared using a milk casein as a protein source and a butter oil as a lipid source. In the animal test, a feed was provided until the 4th week after rearing, and thereafter the group was divided into 5 groups, and the high fat feed or sphingomyelin-blended high fat feed was provided until the 8th week. Blood collection was carried out on the 4th week and on the 8th week, and an adiponectin concentration in blood was measured using a Mouse/Rat Adiponectin ELISA Kit (manufactured by Otsuka Pharmaceutical Co., Ltd.).

[2] = test system: visceral fat; experiment: Inhibition of visceral fat accumulation (high fat feed animal test, dissection on 8th week); format: in vivo
Experimental: Using the sphingomyelin obtained in Example 7, an action of inhibition of visceral fat accumulation was verified. An animal test was carried out using 8 animals per group by a group in which a high fat feed blended with sphingomyelin was fed (sphingomyelin diet group) and a group in which a high fat feed not blended with sphingomyelin was fed (high fat diet group). In the animal test, the high fat feed was provided until the 4th week after rearing, and thereafter the group was divided into 5 groups, and the high fat feed or sphingomyelin-blended high fat feed was provided until the 8th week. By carrying out dissection on the 8th week, the amount of visceral fats (mesenteric, peri-testicular, perirenal, posterior abdominal) was measured.

In the case of “sphingomyelin [Sphingomyelin (Example 7)]”, the “Adiponectin concentration in blood with the lapse of time (in words)” value ([1]; 4th to 8th week, decreases in the high fat diet group) is reported as “increases”, the “Adiponectin concentration in blood” value ([1]; 4 weeks (before start of sphingomyelin-blended high fat feed)) is reported as 10.88 µg/mL and the “Adiponectin concentration in blood” value ([1]; 8 weeks (sphingomyelin-blended high fat feed from 4th to 8th week)) is reported as 15.65 µg/mL. For the same substance, the “Amount of visceral fat, Mesenteric” value ([2]; dissection on the 8th week) was 2.19 g, the “Amount of visceral fat, Perirenal” value ([2]; dissection on the 8th week) was 0.74 g and the “Amount of visceral fat, peri-testicular” value ([2]; dissection on the 8th week) was 3.22 g. For the same substance, the “Amount of visceral fat, posterior abdominal” value ([2]; dissection on the 8th week) was 2.11 g and the “Amount of visceral fat (in words)” value ([2]; in comparison with the high fat diet group) was “low values”.

Source: patent US20090253658A1, “Fat Accumulation Inhibitor” (priority 2006, published 2009)
